In patent US9714266B2, “Estra-1,3,5(10),16-tetraene-3-carboxamides for inhibition of 17β-hydroxysteroid dehydrogenase (AKR1C3)” (priority 2013, dated 2017) one finds IC50 data, which are given here for 2 compounds.

Assay [1] deals with T1, AKR1C3 (Homo sapiens (Human), UniProt P42330). The experiment in a line: AKR1C3 enzyme assay (coumberone reduction, fluorescence). Format: biochemical. To be noted: recombinant human AKR1C3, coumberone 0.3 μM, NADPH 10 μM; read-out: AKR1C3 enzyme inhibition IC50.
T1 sequence (P42330 whole entry): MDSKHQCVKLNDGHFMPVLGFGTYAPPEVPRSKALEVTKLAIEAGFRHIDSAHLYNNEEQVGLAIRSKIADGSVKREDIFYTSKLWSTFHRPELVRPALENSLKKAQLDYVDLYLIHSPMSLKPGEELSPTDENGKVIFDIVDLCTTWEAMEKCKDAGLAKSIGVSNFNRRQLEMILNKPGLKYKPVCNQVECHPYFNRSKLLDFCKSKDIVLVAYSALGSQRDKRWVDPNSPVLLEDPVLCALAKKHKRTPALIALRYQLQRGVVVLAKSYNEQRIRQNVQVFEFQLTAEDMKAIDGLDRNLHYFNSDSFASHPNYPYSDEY
Assay [2] deals with T1, AKR1C3. In words: AKR1C3 inhibition in a cell-based system (transfected HEK293 cells, coumberol fluorescence). To be noted: HEK293 cells transfected with AKR1C3 expression plasmid; read-out: Cellular AKR1C3 inhibition IC50. As for the experimental part: The inhibition of AKR1C3 by the substances described in this invention was measured in a cell-based assay using […] as the substrate for the AKR1C3 (Halim, M., Yee, D. J., and Sames, D., J. AM. CHEM. SOC. 130, 14123-14128 (2008) and Yee, D. J., Balsanek, V., Bauman, D. R., Penning, T. M., and Sames, D., Proc. Natl. Acad. Sci. USA 103, 13304-13309 (2006)) (cf. Example 48).
The cell system used was HEK293 cells (ATCC, USA) (cell culture medium: DMEM, 1.5 g of glucose, 10% FCS, PSG). The cells were transfected with an AKR1C3 expression plasmid (pCMV6-AC-AKR1C3, GenBank Accession No. NM_003739.4) overnight (X-tremeGENE HP, Roche). The next morning, the cells were sown into black 96-well culture plates with a cell density of 40 000 cells/well (Greiner Bio-One, Frickenhausen, Germany). 7 h later, the cells were incubated with the test substances (dissolved in 100× concentration in DMSO, final concentration between 10^−11M and 10^−5M) and […] (dissolved in cell culture medium, final concentration 5×10^−6M) overnight. The following morning, the fluorescence of coumberol was measured at 535 nm (excitation at 355 nm) with a suitable measuring instrument (Mithras, from Berthold). […] The data were normalized (transfected cells without inhibitor, only DMSO=0% inhibition; transfected cells, 10 μM EM-1404 inhibitor [F. Labrie et al. U.S. Pat. No. 6,541,463, 2003]=100% inhibition) and IC50 values were calculated by a 4-parameter fit.

A further assay has as its target Human CYP17A1 (Homo sapiens (Human), UniProt P05093). The experiment in a line: Inhibition of Cyp17A1 (recombinant enzyme, 3H-progesterone conversion, HPLC). It is filed as biochemical. To be noted: human CYP17, mean of 3 or 4 independent IC50 values; read-out: IC50 ± SD CYP17. The protocol:
The inhibition of CYP17A1 by the test compounds was evaluated by means of recombinant enzyme. Human CYP17A1 was expressed in E. coli (Ehmer, P. B. et al.; J. Steroid Biochem. Mol. […] After evaporating the organic phase, the steroids were taken up in acetonitrile. 16α-Hydroxyprogesterone, 17α-hydroxyprogesterone and progesterone were separated with acetonitrile/water (45:55) as mobile phase on a C18 reverse phase chromatography column (Nucleodur C18 Gravity, 3 μm, Macherey-Nagel, Düren) in an HPLC System (Agilent 1100 Series, Agilent Technologies, Waldbronn). Detection and quantification of the steroids were conducted by means of a Radioflow detector (Berthold Technologies, Bad Wildbad). The inhibition was calculated by the following formula: [formula] Each value was calculated from at least three independent experiments.

pIC50: −log10 of the molar value. Values joined by “and” are separate entries in the source; they are usually repeats but may differ in a detail not shown here. Equal entries are not always repeated.

Human CYP17A1, sequence (P05093 whole entry): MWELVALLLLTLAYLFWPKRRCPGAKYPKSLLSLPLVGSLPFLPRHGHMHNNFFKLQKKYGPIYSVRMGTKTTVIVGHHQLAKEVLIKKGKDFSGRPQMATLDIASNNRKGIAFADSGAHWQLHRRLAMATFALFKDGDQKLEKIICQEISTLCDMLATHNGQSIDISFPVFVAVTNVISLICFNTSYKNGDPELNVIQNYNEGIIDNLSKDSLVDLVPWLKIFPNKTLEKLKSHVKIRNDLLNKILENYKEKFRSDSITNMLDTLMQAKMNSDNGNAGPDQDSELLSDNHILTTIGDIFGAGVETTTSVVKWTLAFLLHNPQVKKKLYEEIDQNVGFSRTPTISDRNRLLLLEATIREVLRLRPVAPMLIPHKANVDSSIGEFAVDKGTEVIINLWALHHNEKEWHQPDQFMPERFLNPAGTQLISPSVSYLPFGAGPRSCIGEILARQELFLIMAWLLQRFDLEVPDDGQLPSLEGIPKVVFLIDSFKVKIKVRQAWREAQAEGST

The pIC50 is the negative decadic logarithm of the IC50, by convention in mol/L. On to `C[C@]12CC[C@@H]3c4ccc(C(=O)NCC(O)C(F)(F)F)cc4CC[C@H]3[C@@H]1CC=C2c1cncc(F)c1` (mixture of isomers) [Example 20, 17-(5-fluoropyridin-3-yl)-N—[(RS)-3,3,3-trifluoro-2-hydroxypropyl]oestra-1,3,5(10),16-tetraene-3-carboxamide], for which the negative logarithm of the IC50 (pIC50) on AKR1C3 [1] is 7.92 and 8.10 and 7.70 and 7.80; at AKR1C3 [2], 7.49 and 7.38; at Human CYP17A1, below 4.70.

`C[C@]12CC[C@@H]3c4ccc(C(N)=O)cc4CC[C@H]3[C@@H]1CC=C2c1cncc(F)c1` [Example 4, 17-(5-fluoropyridin-3-yl)oestra-1,3,5(10),16-tetraene-3-carboxamide]: the negative logarithm of the IC50 (pIC50) at AKR1C3 [1] is 8.40; at Human CYP17A1, below 4.70.
